We go through one compound from ChEMBL document CHEMBL1255420, “Fluoroquinolone resistance in Streptococcus dysgalactiae subsp. equisimilis and evidence for a shared global gene pool with Streptococcus pyogenes” (2010).

Some results are limits rather than exact numbers.

The subject of experiment [1] is Streptococcus dysgalactiae subsp. equisimilis. The experiment is described as follows: Antibacterial activity against gyrA03, parC06 allele containing Streptococcus dysgalactiae subsp. equisimilis with GyrA E85K, S79Y mutant by CLSI […] method. Type of experiment: functional.
Experiment [2] shares this test system. The experiment in a line: Antibacterial activity against gyrA04, parC allele containing Streptococcus dysgalactiae subsp. equisimilis with GyrA S81F, S79F mutant by CLSI […] method. Type of experiment: functional. A general note: A growth-free zone around the sample is the usual read-out of agar diffusion tests.
Experiment [3] has the same test system. The experiment in a line: Antibacterial activity against gyrA04, parC15 allele containing Streptococcus dysgalactiae subsp. equisimilis with GyrA S81F, S79F/ParC N91D mutant by CLSI […] method. It is filed as functional.
The test system is the same in experiment [4]. The experiment in a line: Antibacterial activity against gyrA02, parC17 allele containing Streptococcus dysgalactiae subsp. equisimilis with GyrA S81Y, S79F/ParC N91D, P140S mutant by CLSI […] method.
For experiment [5] the test system is unchanged. The experiment in a line: Antibacterial activity against gyrA05, parC05 allele containing Streptococcus dysgalactiae subsp. equisimilis with GyrA D142N mutant by CLSI […] method. It is filed as functional.
For experiment [6] the test system is unchanged. The experiment is described as follows: Antibacterial activity against gyrA04, parC14 allele containing Streptococcus dysgalactiae subsp. equisimilis with GyrA S81F/ParC N91D mutant by CLSI […] method. Type of experiment: functional.
Experiment [7] shares this test system. The experiment is described as follows: Antibacterial activity against gyrA01, parC03 allele containing Streptococcus dysgalactiae subsp. equisimilis with GyrA S79P mutant by CLSI […] method. Type of experiment: functional.
The test system is the same in experiment [8]. The experiment is described as follows: Antibacterial activity against gyrA01, parC12 allele containing Streptococcus dysgalactiae subsp. equisimilis with ParC G166E mutant by CLSI […] method. It is filed as functional.
Experiment [9] has the same test system. The experiment is described as follows: Antibacterial activity against gyrA03, parC10 allele containing Streptococcus dysgalactiae subsp. equisimilis with GyrA E85K/ParC D83G mutant by CLSI […] method. Type of experiment: functional.
The test system is the same in experiment [10]. The experiment in a line: Antibacterial activity against gyrA01, parC allele containing Streptococcus dysgalactiae subsp. equisimilis by CLSI […] method. It is filed as functional.
The test system is the same in experiment [11]. The experiment in a line: Antibacterial activity against gyrA03, parC08 allele containing Streptococcus dysgalactiae subsp. equisimilis with GyrA E85K, S79F mutant by CLSI […] method. It is filed as functional.
Experiment [12] has the same test system. The experiment is described as follows: Antibacterial activity against gyrA01, parC19 allele containing Streptococcus dysgalactiae subsp. equisimilis with GyrA S79A/ParC N91D, P140S mutant by CLSI […] method. It is filed as functional.
Experiment [13] has the same test system. The experiment is described as follows: Antibacterial activity against gyrA04, parC09 allele containing Streptococcus dysgalactiae subsp. equisimilis with GyrA S81F/ParC D83N mutant by CLSI […] method. Type of experiment: functional.
The test system is the same in experiment [14]. The experiment in a line: Antibacterial activity against gyrA01, parC14 allele containing Streptococcus dysgalactiae subsp. equisimilis with ParC N91D mutant by CLSI […] method. It is filed as functional.
The test system is the same in experiment [15]. The experiment in a line: Antibacterial activity against gyrA04, parC13 allele containing Streptococcus dysgalactiae subsp. equisimilis with GyrA S81F, S79A mutant by CLSI […] method. It is filed as functional.
The test system is the same in experiment [16]. The experiment in a line: Antibacterial activity against gyrA01, parC allele containing Streptococcus dysgalactiae subsp. equisimilis with ParC N91D, P140S mutant by CLSI […] method. Type of experiment: functional.
The test system is the same in experiment [17]. The experiment is described as follows: Antibacterial activity against gyrA04, parC17 allele containing Streptococcus dysgalactiae subsp. equisimilis with GyrA S81F, S79F/ParC N91D, P140S mutant by CLSI […] method. It is filed as functional.
The test system is the same in experiment [18]. The experiment in a line: Antibacterial activity against gyrA01, parC04 allele containing Streptococcus dysgalactiae subsp. equisimilis with GyrA S79F mutant by CLSI […] method. Type of experiment: functional.
Experiment [19] has the same test system. The experiment is described as follows: Antibacterial activity against gyrA01, parC17 allele containing Streptococcus dysgalactiae subsp. equisimilis with GyrA S79F, S79F/ParC N91D, P140S mutant by CLSI […] method. Type of experiment: functional.

Consider `C[C@H]1COc2c(N3CCN(C)CC3)c(F)cc3c(=O)c(C(=O)O)cn1c23.C[C@H]1COc2c(N3CCN(C)CC3)c(F)cc3c(=O)c(C(=O)O)cn1c23.O` [LEVOFLOXACIN], for which the MIC in experiment [1] is over 32 µg/mL; in experiment [2], over 32 µg/mL; in [3], over 32 µg/mL; in experiment [4], over 32 µg/mL; in experiment [5], 0.38 µg/mL; in experiment [6], 4 µg/mL. The MIC was 0.75 µg/mL in experiment [7]; 1 µg/mL in experiment [8]; 8 µg/mL in experiment [9]; 0.38 µg/mL in experiment [10]; over 32 µg/mL in [11]; 2 µg/mL in experiment [12]. Further, the MIC in [13] was over 8 µg/mL; in experiment [14] it was 0.5 µg/mL; in [15], 12 µg/mL; in experiment [16], 0.19 µg/mL; in experiment [17], over 32 µg/mL; in experiment [18], 3 µg/mL. For the same compound, in [19], 1.5 µg/mL was the least that counted as inhibitory (MIC).

Usually MIC stands for the lowest concentration found to suppress growth.
